The NIST ThermoML archive (doi:10.1021/je700260f)

Settings: 333.15 K, Liquid, Vibrating tube method

FC(C(F)(F)F)C(F)(F)F [1,1,1,2,3,3,3-heptafluoropropane]
Settings	mass density [kg/m3]
14224 kPa	1356.7
14266 kPa	1357
14291 kPa	1357.2
14328 kPa	1357.4
14371 kPa	1357.7
14400 kPa	1357.8
14435 kPa	1358.2
14458 kPa	1358.3
14483 kPa	1358.5
14514 kPa	1358.6
14545 kPa	1358.8
14575 kPa	1359.1
14609 kPa	1359.3
14631 kPa	1359.4
14665 kPa	1359.7
14691 kPa	1359.8
14717 kPa	1360
14746 kPa	1360.2
14768 kPa	1360.3
14798 kPa	1360.5
15205 kPa	1363.1
15236 kPa	1363.4
15290 kPa	1363.8
15717 kPa	1366.6
15745 kPa	1366.7
15780 kPa	1366.8
15812 kPa	1367.1
15836 kPa	1367.2
15868 kPa	1367.4
15899 kPa	1367.6
15926 kPa	1367.8
16438 kPa	1370.9
16464 kPa	1371.3
16489 kPa	1371.4
16519 kPa	1371.5
16626 kPa	1372.2
16683 kPa	1372.5
16707 kPa	1372.8
16730 kPa	1372.7
16761 kPa	1373
17906 kPa	1379.9
17932 kPa	1379.9
17962 kPa	1380.3
17993 kPa	1380.3
18015 kPa	1380.5
18050 kPa	1380.7
18080 kPa	1380.9
18108 kPa	1381
19508 kPa	1388.9
19537 kPa	1389
19563 kPa	1389.2
19597 kPa	1389.4
19624 kPa	1389.6
19650 kPa	1389.8
19677 kPa	1389.8
20749 kPa	1395.7
20777 kPa	1395.9
20814 kPa	1396
20842 kPa	1396.2
20873 kPa	1396.4
20901 kPa	1396.5
20931 kPa	1396.6
20957 kPa	1396.9
20979 kPa	1396.9
21008 kPa	1397
21033 kPa	1397.1
21063 kPa	1397.3
21088 kPa	1397.5
21120 kPa	1397.5
21148 kPa	1397.8
21172 kPa	1397.9
21205 kPa	1398
21229 kPa	1398.2
21270 kPa	1398.3
21296 kPa	1398.6
21327 kPa	1398.7
21360 kPa	1398.9
21397 kPa	1399.2
21645 kPa	1400.3
21675 kPa	1400.5
21704 kPa	1400.7
21740 kPa	1400.8
21764 kPa	1401
21831 kPa	1401.4
21897 kPa	1401.7
21932 kPa	1401.8
22798 kPa	1406.2
22829 kPa	1406.3
22856 kPa	1406.5
22880 kPa	1406.7
22918 kPa	1406.7
22954 kPa	1407
23854 kPa	1411.4
25147 kPa	1417.6
25181 kPa	1417.7
25224 kPa	1417.9
25251 kPa	1417.9
25279 kPa	1418.1
25312 kPa	1418.3
25354 kPa	1418.4
25387 kPa	1418.6
25415 kPa	1418.7
26099 kPa	1421.9
26128 kPa	1422
26167 kPa	1422.2
26201 kPa	1422.2
26234 kPa	1422.6
26257 kPa	1422.6
26527 kPa	1423.9
26563 kPa	1423.8
26596 kPa	1424.2
26625 kPa	1424.4
26654 kPa	1424.4
26692 kPa	1424.5
26726 kPa	1424.8
26760 kPa	1424.8
26801 kPa	1425
26831 kPa	1425.1
26860 kPa	1425.4
26889 kPa	1425.4
26914 kPa	1425.6
26943 kPa	1425.8
26972 kPa	1425.8
26999 kPa	1425.9
27023 kPa	1426
27056 kPa	1426.1
27081 kPa	1426.2
27119 kPa	1426.4
27151 kPa	1426.6
27180 kPa	1426.6
27621 kPa	1428.6
27651 kPa	1428.9
27681 kPa	1428.9
27707 kPa	1428.9
27750 kPa	1429.2
27783 kPa	1429.3
27818 kPa	1429.5
27852 kPa	1429.7
27890 kPa	1429.9
27916 kPa	1430
27950 kPa	1430.1
27975 kPa	1430.2
28484 kPa	1432.4
28514 kPa	1432.5
28543 kPa	1432.6
28577 kPa	1432.8
28602 kPa	1432.9
28633 kPa	1433
28668 kPa	1433.1
28698 kPa	1433.3
28730 kPa	1433.3
28761 kPa	1433.5
28792 kPa	1433.6
28833 kPa	1433.9
28866 kPa	1434
28892 kPa	1434.1
28917 kPa	1434.2
28956 kPa	1434.4
28982 kPa	1434.4
29008 kPa	1434.6
29042 kPa	1434.7
29069 kPa	1434.8
29104 kPa	1434.9
29132 kPa	1435.2
29171 kPa	1435.3
29206 kPa	1435.5
29233 kPa	1435.5
29267 kPa	1435.7
29293 kPa	1435.7
29326 kPa	1435.9
29364 kPa	1436.1
29400 kPa	1436.2
29434 kPa	1436.4
29694 kPa	1437.4
29758 kPa	1437.7
30086 kPa	1439
30149 kPa	1439.4
30189 kPa	1439.6
30299 kPa	1440
30336 kPa	1440.1
30372 kPa	1440.3
30402 kPa	1440.3
30439 kPa	1440.7
30461 kPa	1440.7
30493 kPa	1440.8
30521 kPa	1440.9
30557 kPa	1441.1
30586 kPa	1441.1
30623 kPa	1441.3
30650 kPa	1441.3
30690 kPa	1441.5
30717 kPa	1441.7
30753 kPa	1441.8
30780 kPa	1441.9
30816 kPa	1442.1
30843 kPa	1442
30884 kPa	1442.3
30925 kPa	1442.4
32911 kPa	1450.4
32943 kPa	1450.4
32981 kPa	1450.6
33028 kPa	1450.9
33066 kPa	1451
33093 kPa	1451.1
33132 kPa	1451.1
